Test results published in patent US12479820B2, “Pyridin-3-yl derivatives” (Idorsia Pharmaceuticals Ltd, priority 2019, dated 2025).

Columns and labels:
human LPA1 receptor = molecular target: T1, human LPA1 receptor (Homo sapiens, UniProt Q92633); assay: Beta-arrestin recruitment assay to determine IC50 values for human LPAR1; format: cell-based; details: Tango EDG2-bla U2OS cells, antagonist assay, LPA 18:1 500 nM final
T1 construct: TEV protease site; Gal4-VP16 transcription factor; host or cells: Tango EDG2-bla U2OS cells
T1 sequence (Q92633 whole entry, the tested form may be a part): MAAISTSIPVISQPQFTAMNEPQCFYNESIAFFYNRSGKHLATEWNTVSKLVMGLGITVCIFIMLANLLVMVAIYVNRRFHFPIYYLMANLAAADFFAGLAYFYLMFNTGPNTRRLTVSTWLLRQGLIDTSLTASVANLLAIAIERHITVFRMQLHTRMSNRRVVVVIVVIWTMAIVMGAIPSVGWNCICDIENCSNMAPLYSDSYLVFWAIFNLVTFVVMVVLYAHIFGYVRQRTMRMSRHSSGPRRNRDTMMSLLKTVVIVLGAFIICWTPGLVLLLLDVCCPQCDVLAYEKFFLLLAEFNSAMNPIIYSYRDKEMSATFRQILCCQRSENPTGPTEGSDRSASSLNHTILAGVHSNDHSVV
Procedure, shortened: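 Tango EDG2-bla U2OS cells were preincubated 30 min at 37 °C with compound. They were then stimulated with 500 nM (final) LPA 18:1 for 16 h. β-Lactamase reporter read by LiveBLAzer FRET substrate (2 h) as the 460/530 nm ratio; IC50 from 4-parameter logistic fit.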

[1] = system: LPA-induced skin vascular leakage in Balb/c mice; assay: mouse LPA-induced skin vascular leakage model; format: in vivo; details: oral administration of 30 mg/kg to mice; extravasated Evans blue per skin disc
Procedure: Assessment of In Vivo Potency
The in vivo potency of the compounds of Formula (I) can be determined using a mouse LPA-induced skin vascular leakage model. Female Balb/c mice are treated with either vehicle or test compound (e.g. at 30 mg/kg or 100 mg/kg p.o.) for at least 1 h prior to administration of the albumin marker Evans blue (50 mg/kg, i.v., 0.9% NaCl) and subsequent challenge with LPA (5 μg, i.d.). After 30 minutes, mice are sacrificed by CO2 inhalation. Discs of skin from the injection sites are removed, digested in formamide (500 μl, 37° C., 24 hrs) and the content of Evans blue quantified by colorimetric assay. Results are expressed as extravasated Evans blue per skin disc (μg/disc).
As an example, selected compound of the present invention, Ex 21-2, is able to effectively reduce LPA-induced vascular leakage after oral administration of 30 mg/kg to mice as compared to a group of animals treated with vehicle only. Reduction of vascular leakage compared to vehicle group was >60%.

Row | SMILES | IC50 (human LPA1 receptor) [nM] | Reduction of vascular leakage compared to vehicle group [1] [%]
1 | COc1cc(Cl)ncc1NC(=O)C1(c2ccccc2C(C)C)CN(S(N)(=O)=O)C1 [Example 21-2, N-(6-chloro-4-methoxypyridin-3-yl)-3-(2-isopropylphenyl)-1-sulfamoylazetidine-3-carboxamide] | 3 | > 60
2 | COc1cc(Cl)ncc1NC(=O)C1(c2ccccc2C(C)C)CN(CCCC(C)(C)C(=O)O)C1 [Example 18-25, 5-(3-((6-chloro-4-methoxypyridin-3-yl)carbamoyl)-3-(2-isopropylphenyl)azetidin-1-yl)-2,2-dimethylpentanoic acid] | 47 | 
3 | CNS(=O)(=O)N1CC(C(=O)Nc2cnc(Cl)cc2OC)(c2ccccc2C(C)C)C1 [Example 21-12, N-(6-chloro-4-methoxypyridin-3-yl)-3-(2-isopropylphenyl)-1-(N-methylsulfamoyl)azetidine-3-carboxamide] | 19 | 

Continued by falling IC50 (human LPA1 receptor), values first:

Row | IC50 (human LPA1 receptor) [nM] | SMILES | Reduction of vascular leakage compared to vehicle group [1] [%]
4 | 24 | COc1cc(Cl)ncc1NC(=O)C1(c2ccccc2C(C)C)CN(C(=O)Cc2c[nH]nc2O)C1 [Example 19-12, N-(6-chloro-4-methoxypyridin-3-yl)-1-(2-(3-hydroxy-1H-pyrazol-4-yl)acetyl)-3-(2-isopropylphenyl)azetidine-3-carboxamide] | 
5 | 15 | COc1cc(Cl)ncc1NC(=O)C1(c2ccccc2C(C)C)CN(C(=O)Cn2nccn2)C1 [Example 19-7, 1-(2-(2H-1,2,3-triazol-2-yl)acetyl)-N-(6-chloro-4-methoxypyridin-3-yl)-3-(2-isopropylphenyl)azetidine-3-carboxamide] | 
